Assays:
Assay type in all cases: cell-based
[1] = system: SDMA (PRMT5 activity) in HAP1 MTAP-intact cell line; assay: SDMA in-cell western assay, HAP1 MTAP-intact; details: Homo sapiens, HAP1, 24 h, SDMA in-cell western, HAP1 MTAP-intact cells, 24 hours compound incubation
[2] = system: HAP1 MTAP-deleted cell line; assay: Viability assay (CellTiter-Glo), HAP1 MTAP-deleted; details: Homo sapiens, 168 h, HAP1 MTAP-deleted cells, 7 days
Method in brief: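 HAP1 MTAP-deleted and MTAP-intact cells seeded, then dosed next day (n=3, 0.2% DMSO) and grown 7 days. Viability by CellTiter-Glo luminescence, expressed as % of DMSO control per cell line.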

[3] = system: SDMA (PRMT5 activity) in HAP1 MTAP-deleted cell line; assay: SDMA in-cell western assay, HAP1 MTAP-deleted; details: for IC50 / IC90: Homo sapiens, SDMA in-cell western, HAP1 MTAP-deleted cells, 24 hours compound incubation; for Hap1 MTAP intact/deleted ratio: ratio of SDMA IC50 in HAP1 MTAP-intact to HAP1 MTAP-deleted cell line

SMILES	IC50 [1]	IC50 [2]	IC50 [3]	IC90 [3]	Hap1 MTAP intact/deleted ratio [3]
CCc1cc(NC(=O)C(=O)N2C[C@@H](C)CC[C@@H]2c2ccc3c(C)n(C4CCN(C)CC4)nc3c2)cnc1N [Compound 19, N-(6-amino-5-ethyl-3-pyridyl)-2-oxo-2-[(2R,5S)-5-methyl-2-[3-methyl-2-(1-methyl-4-piperidyl)indazol-6-yl]-1-piperidyl]acetamide]	> 50 nM	< 100 nM	< 5 nM	< 75 nM	A (“A” indicates an IC50 ratio greater than or equal to 30 fold)
CCc1cc(NC(=O)C(=O)N2C[C@@H](C)CC[C@@H]2c2ccc3sc([C@H]4CN(C)C(C)(C)C4)nc3c2)cnc1N (single isomer, unassigned) [Compound 27]	5 to 50 nM	< 100 nM	< 5 nM	< 75 nM	B (“B” indicates an IC50 ratio greater than or equal to 15 fold but lower than 30 fold)
COc1ncc(NC(=O)C(=O)N2C[C@@H](C)CC[C@@H]2c2ccc3sc(C4=CCN(C)CC4)nc3c2)cc1C(N)=O [Compound 83, 2-methoxy-5-(2-((2R,5S)-5-methyl-2-(2-(1-methyl-1,2,3,6-tetrahydropyridin-4-yl)benzo[d]thiazol-5-yl)piperidin-1-yl)-2-oxoacetamido)nicotinamide]	> 50 nM	< 100 nM	< 5 nM	< 75 nM	A (“A” indicates an IC50 ratio greater than or equal to 30 fold)
CCc1cc(NC(=O)C(=O)N2C[C@@H](C)CC[C@@H]2c2ccc3cn(C4CCCN(C)C4)nc3c2)cnc1N (single isomer, unassigned) [Compound 80]	5 to 50 nM	< 100 nM	< 5 nM	< 75 nM	C (“C” indicates an IC50 ratio of less than 15 fold)
COc1ncc(NC(=O)C(=O)N2C[C@@H](C)CC[C@@H]2c2ccc3cn([C@@H]4CCN(C)C4)nc3c2)cc1C(N)=O [Compound 102, 2-methoxy-5-(2-((2R,5S)-5-methyl-2-(2-((R)-1-methylpyrrolidin-3-yl)-2H-indazol-6-yl)piperidin-1-yl)-2-oxoacetamido)nicotinamide]	> 50 nM	< 100 nM	< 5 nM	< 75 nM	A (“A” indicates an IC50 ratio greater than or equal to 30 fold)
CCc1cc(NC(=O)C(=O)N2C[C@@H](C)CC[C@@H]2c2ccc3sc([C@H]4C[C@H](C)CN(C)C4)nc3c2)cnc1N (single isomer, unassigned) [Compound 75]	> 50 nM	< 100 nM	5 to 50 nM	< 75 nM	B (“B” indicates an IC50 ratio greater than or equal to 15 fold but lower than 30 fold)
CCc1cc(NC(=O)C(=O)N2C[C@@H](C)CC[C@@H]2c2ccc3ccc(C4CCN(C)CC4)cc3c2)cnc1N [Compound 123, N-(6-amino-5-ethylpyridin-3-yl)-2-((2R,5S)-5-methyl-2-(7-(1-methylpiperidin-4-yl)naphthalen-2-yl)piperidin-1-yl)-2-oxoacetamide]	> 50 nM	< 100 nM	< 5 nM	< 75 nM	A (“A” indicates an IC50 ratio greater than or equal to 30 fold)

— patent publication US20250171432A1, “COMPOUNDS AND METHODS OF USE” (Tango Therapeutics, Inc., priority 2022, published 2025)
